From US20050176149A1, “Process for the reversible functional inactivation of the mismatch repair system” (priority 2002, published 2005)
“Also recorded” adds a separate entry of the source.

What was measured:
[1] = system: interspecies S. typhimurium Hfr×E. coli F^− conjugational recombination; assay: interspecies S. typhimurium Hfr×E. coli F^− conjugational recombination (Thr^+ recombinants per Hfr donor); type: cell-based
Description: (§1) FIG. 1: Influence of 2-aminopurine (2-AP) on the efficiency of intraspecies E. coli Hfr×E. coli F^− and interspecies S. typhimurium Hfr×E. coli F^− conjugational recombination. Recipient E. coli strains were either mutS^+ (A, C) or mutS^− (B, D). The recombination frequencies for the selected marker (Thr^+) are expressed per Hfr donor after subtracting unmated revertants. Each number represents the mean (± standard error) of at least three independent experiments.
The conjugation experiments have been performed under the previously described conditions (Rayssiguier et al., 1989). The overnight cultures of donor strains (2-4×10^9 cells/ml) comprising the DNA sequence to be introduced and recipient strains comprising the autologous DNA sequences were diluted 50-fold into fresh LB medium, with or without 2-aminopurine (Sigma), and grown with gentle shaking (about 150 rpm) in order to obtain 2-4×10^8 cells/ml. In order to obtain the required concentration of cells, about 3 hours of incubation is required. When cells were treated with 2-AP, the growth was slightly slower (the incubation was about 30 minutes longer) compared to the growth without 2-AP. The 2-AP treatment of the donor and recipient strains before mating is preferred as 2-AP must be incorporated in the DNA during replication in order to saturate mismatch repair. The doses of 2-AP tested were: 25 μg/ml, 50 μg/ml, 75 μg/ml, 100 μg/ml, 300 μg/ml and 600 μg/ml. The effect of 2-AP treatment was already significant when 50 μg/ml of 2-AP was used. […] Mating mixtures were prepared by mixing together Hfr and F^− bacteria in a 1:1 ratio. This mixture was filtered through a sterile 0.45-μm-pore size nitrocellulose filter (2.5 cm diameter), using vacuum filtration equipment (MILLIPORE). The filters with mating mixtures i.e. mixtures with cells comprising autologous and introduced nucleotide sequences were incubated on fresh LB agar plate (with or without 2-aminopurine) prewarmed at 37° C. […] For this purpose, the M9 medium [supplemented with arginine, histidine, leucine, proline and tryptophane (100 μg/ml each), thiamine (30 μg/ml), glucose (0.4%), and nalidixic acid (40 μg/ml) to counter-select the Hfr donor cells] was used. Threonine was not added to the media in order to select Thr^+ recombinants. Recombinants were scored after incubation of 48 hours at 37° C.
The recombination between these two bacterial species, which have about 16% divergence in their genomic sequences, is very low (10^−8-10^−7; FIG. 1A) compared to intraspecies recombination (about 10^−1; FIG. 1C). Inactivation of the mutS or mutL gene in recipient cells according to the present invention using 2-AP increases about 10^3-10^4-fold the frequency of interspecies recombination (FIG. 1B, FIG. 2A and 2B).

[2] = system: intraspecies E. coli Hfr×E. coli F^− conjugational recombination; assay: intraspecies E. coli Hfr×E. coli F^− conjugational recombination (Thr^+ recombinants per Hfr donor); type: cell-based; conditions: mutS^+ (wildtype) or mutS^− background
Description: as §1
The conjugation experiments have been performed under the previously described conditions (Rayssiguier et al., 1989). The overnight cultures of donor strains (2-4×10^9 cells/ml) comprising the DNA sequence to be introduced and recipient strains comprising the autologous DNA sequences were diluted 50-fold into fresh LB medium, with or without 2-aminopurine (Sigma), and grown with gentle shaking (about 150 rpm) in order to obtain 2-4×10^8 cells/ml. In order to obtain the required concentration of cells, about 3 hours of incubation is required. When cells were treated with 2-AP, the growth was slightly slower (the incubation was about 30 minutes longer) compared to the growth without 2-AP. The 2-AP treatment of the donor and recipient strains before mating is preferred as 2-AP must be incorporated in the DNA during replication in order to saturate mismatch repair. […] Recombinants were scored after incubation of 48 hours at 37° C.

MutL protein = biological target: T1, MutL protein (Escherichia coli, UniProt P23367); assay: identification of the mismatch-repair system component saturated or inhibited by 2-AP (complementation with mutS^+ or mutL^+ plasmids); type: cell-based, E. coli; conditions: 2-AP 300 mg/ml (so in the source); plasmids carrying mutS^+ or mutL^+
T1 construct: endogenous in cells; host or cells: E. coli K12 AB1157 derivatives (MX4, MX5); In MX5 (mutL218::Tn10), MutL comes from plasmid pMQ339 (mutL+)
T1 sequence (P23367 whole entry): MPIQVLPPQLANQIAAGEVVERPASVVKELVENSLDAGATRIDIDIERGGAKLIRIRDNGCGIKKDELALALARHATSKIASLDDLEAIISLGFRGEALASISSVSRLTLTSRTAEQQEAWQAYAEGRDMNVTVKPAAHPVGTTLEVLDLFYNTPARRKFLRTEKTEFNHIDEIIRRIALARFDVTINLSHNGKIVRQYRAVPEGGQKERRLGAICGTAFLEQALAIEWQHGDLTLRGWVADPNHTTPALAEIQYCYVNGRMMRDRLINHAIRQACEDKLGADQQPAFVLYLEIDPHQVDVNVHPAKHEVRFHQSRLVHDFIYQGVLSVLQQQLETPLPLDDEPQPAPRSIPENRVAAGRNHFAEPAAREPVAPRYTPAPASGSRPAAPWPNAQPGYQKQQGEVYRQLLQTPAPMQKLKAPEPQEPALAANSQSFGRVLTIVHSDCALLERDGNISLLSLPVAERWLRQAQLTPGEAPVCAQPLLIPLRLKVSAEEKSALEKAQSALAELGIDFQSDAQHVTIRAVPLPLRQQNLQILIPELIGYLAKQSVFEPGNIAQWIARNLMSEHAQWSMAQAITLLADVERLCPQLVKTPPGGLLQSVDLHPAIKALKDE
Description: FIG. 2: Identification of the mismatch-repair system component, which is saturated or inhibited with 2-aminopurine (2-AP) treatment. Recipient E. coli strains were either […] (A, B) or mutL^− (C, D). The mismatch repair deficiency was complemented with plasmids carrying mutS^+ (A, B) or mutL^+ genes (C, D). The dose of 2-AP used in these experiments was always 300 mg/ml. The recombination frequencies for the selected marker (Thr^+) are expressed per Hfr donor after subtracting unmated revertants. Each number represents the mean (± standard error) of at least three independent experiments.
Plasmids carrying mutS^+ or mutL^+ genes were indroduced by electrotransformation (using BIO RAD micro pulser apparatus) in MX4 and MX5 strains, respectively.
The conjugation experiments have been performed under the previously described conditions (Rayssiguier et al., 1989). The overnight cultures of donor strains (2-4×10^9 cells/ml) comprising the DNA sequence to be introduced and recipient strains comprising the autologous DNA sequences were diluted 50-fold into fresh LB medium, with or without 2-aminopurine (Sigma), and grown with gentle shaking (about 150 rpm) in order to obtain 2-4×10^8 cells/ml. In order to obtain the required concentration of cells, about 3 hours of incubation is required. […] Recombinants were scored after incubation of 48 hours at 37° C.

[3] = system: donor and recipient strains; assay: growth of donor and recipient strains in LB medium with 2-AP; type: cell-based, E. coli; conditions: 37° C., compared to growth without 2-AP (about 3 hours)
Description: The conjugation experiments have been performed under the previously described conditions (Rayssiguier et al., 1989). The overnight cultures of donor strains (2-4×10^9 cells/ml) comprising the DNA sequence to be introduced and recipient strains comprising the autologous DNA sequences were diluted 50-fold into fresh LB medium, with or without 2-aminopurine (Sigma), and grown with gentle shaking (about 150 rpm) in order to obtain 2-4×10^8 cells/ml. In order to obtain the required concentration of cells, about 3 hours of incubation is required. When cells were treated with 2-AP, the growth was slightly slower (the incubation was about 30 minutes longer) compared to the growth without 2-AP. The 2-AP treatment of the donor and recipient strains before mating is preferred as 2-AP must be incorporated in the DNA during replication in order to saturate mismatch repair. The doses of 2-AP tested were: 25 μg/ml, 50 μg/ml, 75 μg/ml, 100 μg/ml, 300 μg/ml and 600 μg/ml. The effect of 2-AP treatment was already significant when 50 μg/ml of 2-AP was used. […] Mating mixtures were prepared by mixing together Hfr and F^− bacteria in a 1:1 ratio. This mixture was filtered through a sterile 0.45-μm-pore size nitrocellulose filter (2.5 cm diameter), using vacuum filtration equipment (MILLIPORE). […] Recombinants were scored after incubation of 48 hours at 37° C.

For `Nc1ncc2[nH]cnc2n1` [2-AP, 2-aminopurine], the “2-AP dose at which the effect on recombination was already significant” value ([1]; doses tested 25-600 μg/ml) was 50 µg/mL, the “2-AP dose of maximal effect on recombination efficiency” value ([1]; doses tested 25-600 μg/ml, further increases did not increase recombination efficiency further) was 100 µg/mL and the “2-AP effect on interspecies recombination in mutS^− recipient background” value ([1]; mutS^− recipient (FIG. 1B) compared with wildtype (FIG. 1A)) was “not as pronounced as in a wildtype background”. The “2-AP concentration range in which an increase of recombination frequency is seen” value ([1]; wild-type recipient cells, in particular at and above 75 μg/ml) was 50 to 600 µg/mL, the “effect of 2-AP on frequency of intraspecies recombination” value [2] was “not considerably increased; also recorded: not modified” and the “component of the MRS titrated or inactivated by the 2-AP treatment” value (MutL protein) was “MutL protein”. The “additional incubation time needed to reach 2-4×10^8 cells/ml (slower growth) with 2-AP” value [3] was “about 30 minutes”.
